From PubChem BioAssay (NCI)
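Dose response: 5 concentrations. Exposure: 48 h. Format: 96-well plates. Endpoint: linear interpolation; highest concentration if not reached. Definition used: TGI = concentration required for complete inhibition of growth.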

How the values were obtained:
Experiment in all cases: NCI anticancer screen, dose series, 48 h
NCI-H460 lung = system: NCI-H460 lung
DMS 114 small cell lung = system: DMS 114 small cell lung
SW-620 colon = system: SW-620 colon
HL-60(TB) leukemia = system: HL-60(TB) leukemia
HCT-116 colon = system: HCT-116 colon
K-562 leukemia = system: K-562 leukemia
HOP-18 NSCLC = system: HOP-18 NSCLC
OVCAR-8 ovarian = system: OVCAR-8 ovarian
HT29 colon = system: HT29 colon
SN12C renal = system: SN12C renal
SF-295 CNS = system: SF-295 CNS
HOP-92 NSCLC = system: HOP-92 NSCLC
HCT-15 colon = system: HCT-15 colon
SNB-75 CNS = system: SNB-75 CNS
ACHN renal = system: ACHN renal
OVCAR-3 ovarian = system: OVCAR-3 ovarian
DLD-1 colon = system: DLD-1 colon
IGROV1 ovarian = system: IGROV1 ovarian
TK-10 renal = system: TK-10 renal
DMS 273 small cell lung = system: DMS 273 small cell lung
CAKI-1 renal = system: CAKI-1 renal
SNB-19 CNS = system: SNB-19 CNS
SK-MEL-28 melanoma = system: SK-MEL-28 melanoma
CCRF-CEM leukemia = system: CCRF-CEM leukemia
SF-268 CNS = system: SF-268 CNS
MALME-3M melanoma = system: MALME-3M melanoma
A498 renal = system: A498 renal
SF-539 CNS = system: SF-539 CNS
NCI-H522 lung = system: NCI-H522 lung
786-0 renal = system: 786-0 renal
COLO 205 colon = system: COLO 205 colon
M14 melanoma = system: M14 melanoma
KM12 colon = system: KM12 colon
OVCAR-5 ovarian = system: OVCAR-5 ovarian
M19-MEL melanoma = system: M19-MEL melanoma
EKVX NSCLC = system: EKVX NSCLC
LXFL 529 NSCLC = system: LXFL 529 NSCLC
RXF-631 renal = system: RXF-631 renal
NCI-H23 lung = system: NCI-H23 lung
RPMI-8226 leukemia = system: RPMI-8226 leukemia
SK-MEL-5 melanoma = system: SK-MEL-5 melanoma
U251 CNS = system: U251 CNS
SK-MEL-2 melanoma = system: SK-MEL-2 melanoma
UACC-62 melanoma = system: UACC-62 melanoma
SK-OV-3 ovarian = system: SK-OV-3 ovarian
XF 498 CNS = system: XF 498 CNS
MOLT-4 leukemia = system: MOLT-4 leukemia
SR leukemia = system: SR leukemia
SNB-78 CNS = system: SNB-78 CNS
A549 NSCLC = system: A549 NSCLC
NCI-H226 lung = system: NCI-H226 lung
UO-31 renal = system: UO-31 renal
RXF 393 renal = system: RXF 393 renal
LOX IMVI melanoma = system: LOX IMVI melanoma
KM20L2 colon = system: KM20L2 colon

Measured: TGI

CCOC(=O)C/C(N)=C(\C#N)C(=O)OCC
> 100 µM: all assays above
